Source: patent US9481676B2, “Azepino[4,5-B]indoles and methods of use” (Medivation Technologies, Inc., priority 2008, dated 2016)

Columns and labels:
[1] = molecular target: T1, human recombinant dopamine D2L receptor (Homo sapiens, UniProt P14416); experiment: Dopamine D2L radioligand binding ([3H]Spiperone); conditions: compound at 1 μM; read-out: Dopamine (1 μM) D2L, percent inhibition of specific binding
T1 construct: expressed in transfected cells; host or cells: CHO cells
Experimental: To evaluate in radioligand binding assays the activity of compounds of the invention, human recombinant dopamine D2L receptor expressed in Chinese hamster ovary (CHO) cells (Grandy, D. K. et al. Proc. Natl. Acad. Sci. USA. 86:9762, 1989; Hayes, G. et al., Mol. Endocrinol. 6:920, 1992) in a modified Tris-HCl buffer (50 mM Tris-HCl, pH 7.4, 1.4 mM Ascorbic Acid, 0.001% BSA, 150 mM NaCl) was used. Compounds of the invention were incubated with 0.16 nM [^3H]Spiperone for 120 min. at 25° C. Non-specific binding was estimated in the presence of 10 μM Haloperidol. Receptor proteins were filtered and washed, the filters were then counted to determine [^3H]Spiperone specifically bound. Compounds were screened at 1 μM or lower, using 1% DMSO as vehicle. Biochemical assay results are presented as the percent inhibition of specific binding in Table 5.

[2] = molecular target: T2, human recombinant serotonin (5-Hydroxytryptamine) 5-HT2A receptor (Homo sapiens, UniProt P28223); experiment: Serotonin 5-HT2A radioligand binding ([3H]Ketanserin); conditions: compound at 1 μM; read-out: Serotonin (1 μM) 5-HT2A, percent inhibition of specific binding
T2 construct: expressed in transfected cells; host or cells: CHO-K1 cells
Experimental: To evaluate in radioligand binding assays the activity of compounds of the invention, human recombinant serotonin (5-Hydroxytryptamine) 5-HT2A receptor expressed in Chinese hamster ovary (CHO-K1) cells (Bonhaus, D. W. et al. Br. J. Pharmacol. 115:622, 1995; Saucier, C. and Albert, P. R., J. Neurochem. 68:1998, 1997) in a 50 mM Tris-HCl buffer, pH 7.4, was used. Compounds of the invention were incubated with 0.5 nM [^3H]Ketanserin for 60 min. at 25° C. Non-specific binding was estimated in the presence of 1 μM Mianserin. Receptor proteins were filtered and washed, the filters were then counted to determine [^3H]Ketanserin specifically bound. Compounds were screened at 1 μM or lower, using 1% DMSO as vehicle. Biochemical assay results are presented as the percent inhibition of specific binding in Table 6.

[3] = molecular target: T3, human recombinant serotonin (5-Hydroxytryptamine) 5-HT2C receptor (Homo sapiens, UniProt P28335); experiment: Serotonin 5-HT2C radioligand binding ([3H]Mesulergine); conditions: compound at 1 μM; read-out: Serotonin (1 μM) 5-HT2C, percent inhibition of specific binding
T3 construct: expressed in transfected cells; host or cells: CHO-K1 cells
T3 sequence (P28335 33-458): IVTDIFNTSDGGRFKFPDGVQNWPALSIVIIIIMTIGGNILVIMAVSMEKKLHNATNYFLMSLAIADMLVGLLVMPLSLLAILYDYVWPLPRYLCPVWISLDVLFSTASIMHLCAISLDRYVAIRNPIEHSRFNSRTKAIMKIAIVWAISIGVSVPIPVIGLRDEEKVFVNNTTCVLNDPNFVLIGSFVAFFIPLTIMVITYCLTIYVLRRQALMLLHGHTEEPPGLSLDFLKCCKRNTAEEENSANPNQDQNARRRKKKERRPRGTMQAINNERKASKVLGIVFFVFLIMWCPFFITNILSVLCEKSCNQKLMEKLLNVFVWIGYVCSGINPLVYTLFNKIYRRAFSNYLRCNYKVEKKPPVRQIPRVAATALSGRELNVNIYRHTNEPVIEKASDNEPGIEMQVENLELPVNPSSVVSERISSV
Experimental: To evaluate in radioligand binding assays the activity of compounds of the invention, human recombinant serotonin (5-Hydroxytryptamine) 5-HT2C receptor expressed in Chinese hamster ovary (CHO-K1) cells (Wolf, W. A. and Schutz, J. S., J. Neurochem. 69:1449, 1997) in a modified Tris-HCl buffer (50 mM Tris-HCl, pH 7.4, 0.1% Ascorbic Acid, 10 μM Pargyline) was used. Compounds of the invention were incubated with 1 nM [^3H]Mesulergine for 60 min. at 25° C. Non-specific binding was estimated in the presence of 1 μM Mianserin. Receptor proteins were filtered and washed, the filters were then counted to determine [^3H]Mesulergine specifically bound. Compounds were screened at 1 μM or lower, using 1% DMSO as vehicle. Biochemical assay results are presented as the percent inhibition of specific binding in Table 6.

[4] = molecular target: T4, human recombinant serotonin (5-Hydroxytryptamine) 5-HT6 receptor (Homo sapiens, UniProt P50406); experiment: Serotonin 5-HT6 radioligand binding ([3H]LSD); conditions: compound at 1 μM; read-out: Serotonin (1 μM) 5-HT6, percent inhibition of specific binding
T4 construct: expressed in transfected cells; host or cells: human HeLa cells
Experimental: To evaluate in radioligand binding assays the activity of compounds of the invention, human recombinant serotonin (5-Hydroxytryptamine) 5-HT6 receptor expressed in human HeLa cells (Monsma, F. J. Jr. et al., Mol. Pharmacol. 43:320, 1993) in a modified Tris-HCl buffer (50 mM Tris-HCl, pH 7.4, 150 mM NaCl, 2 mM Ascorbic Acid, 0.001% BSA) was used. Compounds of the invention were incubated with 1.5 nM [3H]Lysergic acid diethylamide (LSD) for 120 min. at 37° C. Non-specific binding was estimated in the presence of 5 μM Serotonin (5-HT). Receptor proteins were filtered and washed, the filters were then counted to determine [3H]LSD specifically bound. Compounds were screened at 1 μM or lower, using 1% DMSO as vehicle. Biochemical assay results are presented as the percent inhibition of specific binding in Table 6.

[5] = molecular target: T5, human recombinant histamine H1 receptor (Homo sapiens, UniProt P35367); experiment: Histamine H1 radioligand binding ([3H]Pyrilamine); conditions: compound at 1 μM; read-out: Histamine Binding (1 μM) H1, percent inhibition of specific binding
T5 construct: expressed in transfected cells; host or cells: CHO cells
Experimental: To evaluate in radioligand binding assays the activity of compounds of the invention, human recombinant histamine H1 receptor expressed in Chinese hamster ovary (CHO) cells (De Backer, M. D. et al., Biochem. Biophys. Res. Comm. 197(3):1601, 1993) in a modified Tris-HCl buffer (50 mM Tris-HCl, pH 7.4, 2 mM MgCl2, 100 mM NaCl, 250 mM Sucrose) was used. Compounds of the invention were incubated with 1.2 nM [^3H]Pyrilamine for 180 min. at 25° C. Non-specific binding was estimated in the presence of 1 μM pyrilamine. Receptor proteins were filtered and washed, the filters were then counted to determine [^3H]Pyrilamine specifically bound. Compounds were screened at 1 μM or lower, using 1% DMSO as vehicle. Biochemical assay results are presented as the percent inhibition of specific binding in Table 6.

[6] = molecular target: T6, human recombinant histamine H2 receptor (Homo sapiens, UniProt P25021); experiment: Histamine H2 radioligand binding ([125I]Aminopotentidine); conditions: compound at 1 μM; read-out: Histamine Binding (1 μM) H2, percent inhibition of specific binding
T6 construct: expressed in transfected cells; host or cells: CHO-K1 cells
Experimental: To evaluate in radioligand binding assays the activity of compounds of the invention, human recombinant histamine H2 receptor expressed in Chinese hamster ovary (CHO) K1 cells (Ruat, M., Proc. Natl. Acad. Sci. USA. 87(5):1658, 1990) in a 50 mM Phosphate buffer, pH 7.4 was used. Compounds of the invention were incubated with 0.1 nM [^125I]Aminopotentidine for 120 min. at 25° C. Non-specific binding was estimated in the presence of 3 μM Tiotidine. Receptor proteins were filtered and washed, the filters were then counted to determine [^125I]Aminopotentidine specifically bound. Compounds were screened at 1 μM or lower, using 1% DMSO as vehicle. Biochemical assay results are presented as the percent inhibition of specific binding in Table 6.

T1 sequence (P14416 whole entry): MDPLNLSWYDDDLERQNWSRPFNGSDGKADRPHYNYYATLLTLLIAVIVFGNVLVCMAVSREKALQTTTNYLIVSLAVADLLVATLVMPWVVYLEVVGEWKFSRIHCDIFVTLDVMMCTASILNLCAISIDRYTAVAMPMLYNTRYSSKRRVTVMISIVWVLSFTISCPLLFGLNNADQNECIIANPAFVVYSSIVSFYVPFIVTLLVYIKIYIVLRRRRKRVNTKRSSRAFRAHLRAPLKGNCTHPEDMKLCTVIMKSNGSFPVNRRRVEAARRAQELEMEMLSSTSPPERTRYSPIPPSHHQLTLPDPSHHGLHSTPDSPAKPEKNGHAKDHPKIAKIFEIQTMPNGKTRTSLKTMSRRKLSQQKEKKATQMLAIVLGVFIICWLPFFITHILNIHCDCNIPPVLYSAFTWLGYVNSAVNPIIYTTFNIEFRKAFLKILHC
T6 sequence (P25021 whole entry): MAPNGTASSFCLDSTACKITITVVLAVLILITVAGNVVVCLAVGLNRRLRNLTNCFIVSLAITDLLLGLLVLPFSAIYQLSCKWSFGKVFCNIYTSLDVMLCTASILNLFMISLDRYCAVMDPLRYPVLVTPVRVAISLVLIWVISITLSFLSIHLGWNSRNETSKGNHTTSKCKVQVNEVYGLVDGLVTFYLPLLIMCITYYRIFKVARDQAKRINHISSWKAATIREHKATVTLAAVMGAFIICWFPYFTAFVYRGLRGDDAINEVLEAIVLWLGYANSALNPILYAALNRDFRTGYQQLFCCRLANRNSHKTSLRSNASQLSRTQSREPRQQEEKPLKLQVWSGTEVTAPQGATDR
T4 sequence (P50406 whole entry): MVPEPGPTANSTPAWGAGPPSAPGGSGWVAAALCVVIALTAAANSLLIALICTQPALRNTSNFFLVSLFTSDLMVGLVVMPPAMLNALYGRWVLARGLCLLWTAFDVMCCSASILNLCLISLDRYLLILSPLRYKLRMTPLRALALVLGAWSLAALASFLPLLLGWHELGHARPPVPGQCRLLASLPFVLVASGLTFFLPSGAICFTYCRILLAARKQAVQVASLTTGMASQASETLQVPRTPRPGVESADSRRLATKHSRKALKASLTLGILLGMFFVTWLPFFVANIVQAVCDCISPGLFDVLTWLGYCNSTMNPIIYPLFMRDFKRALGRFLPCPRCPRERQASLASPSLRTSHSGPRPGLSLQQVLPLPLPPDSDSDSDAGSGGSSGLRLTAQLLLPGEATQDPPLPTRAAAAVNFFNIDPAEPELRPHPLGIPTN
T5 sequence (P35367 whole entry): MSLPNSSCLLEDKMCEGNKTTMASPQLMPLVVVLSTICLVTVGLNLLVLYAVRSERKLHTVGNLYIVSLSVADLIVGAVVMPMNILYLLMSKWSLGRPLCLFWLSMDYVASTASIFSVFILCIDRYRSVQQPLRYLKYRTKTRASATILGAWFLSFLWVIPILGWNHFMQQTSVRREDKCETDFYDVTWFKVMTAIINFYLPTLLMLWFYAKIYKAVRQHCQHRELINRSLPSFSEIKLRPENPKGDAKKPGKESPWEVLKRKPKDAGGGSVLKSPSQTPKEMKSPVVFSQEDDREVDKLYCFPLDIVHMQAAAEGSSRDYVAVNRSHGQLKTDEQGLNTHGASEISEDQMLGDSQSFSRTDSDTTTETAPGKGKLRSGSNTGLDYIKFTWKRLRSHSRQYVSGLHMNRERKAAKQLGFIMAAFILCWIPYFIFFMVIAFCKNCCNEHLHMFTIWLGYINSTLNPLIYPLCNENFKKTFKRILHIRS
T2 sequence (P28223 whole entry): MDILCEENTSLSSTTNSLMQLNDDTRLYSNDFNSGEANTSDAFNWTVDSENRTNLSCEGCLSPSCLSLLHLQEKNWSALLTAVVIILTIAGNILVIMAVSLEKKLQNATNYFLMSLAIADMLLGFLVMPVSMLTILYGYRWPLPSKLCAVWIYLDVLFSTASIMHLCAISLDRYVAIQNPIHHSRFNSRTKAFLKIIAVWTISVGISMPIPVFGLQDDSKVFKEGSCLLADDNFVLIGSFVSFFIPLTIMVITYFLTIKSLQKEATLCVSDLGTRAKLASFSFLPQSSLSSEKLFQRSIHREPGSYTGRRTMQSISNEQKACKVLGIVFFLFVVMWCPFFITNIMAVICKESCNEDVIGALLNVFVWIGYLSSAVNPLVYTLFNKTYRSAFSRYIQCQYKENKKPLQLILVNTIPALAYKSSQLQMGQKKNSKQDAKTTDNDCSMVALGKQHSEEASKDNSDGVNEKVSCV

Compound | inhibition at 1 µM [1] [%] | inhibition at 1 µM [2] [%] | inhibition at 1 µM [3] [%] | inhibition at 1 µM [4] [%] | inhibition at 1 µM [5] [%] | inhibition at 1 µM [6] [%]
C/C(=C\n1c2c(c3cc(Cl)ccc31)CCN(C)CC2)c1ccccc1F [Compound No. 243, (E)-9-chloro-6-(2-(2-fluorophenyl)prop-1-enyl)-3-methyl-1,2,3,4,5,6-hexahydroazepino[4,5-b]indole] | 32 | 98 | 102 | 99 | 93 | 84
C/C(=C/n1c2c(c3cc(Cl)ccc31)CCN(C)CC2)c1ccccc1Cl [Compound No. 244, (Z)-9-chloro-6-(2-(2-chlorophenyl)prop-1-enyl)-3-methyl-1,2,3,4,5,6-hexahydroazepino[4,5-b]indole] | 43 | 100 | 101 | 103 | 102 | 99
C/C(=C\n1c2c(c3cc(Cl)ccc31)CCN(C)CC2)c1ccccc1Cl [Compound No. 245, (E)-9-chloro-6-(2-(2-chlorophenyl)prop-1-enyl)-3-methyl-1,2,3,4,5,6-hexahydroazepino[4,5-b]indole] | 16 | 99 | 99 | 97 | 96 | 88
C/C(=C\n1c2c(c3cc(Cl)ccc31)CCN(C)CC2)c1cccnc1 [Compound No. 246, (E)-9-chloro-3-methyl-6-(2-(pyridin-3-yl)prop-1-enyl)-1,2,3,4,5,6-hexahydroazepino[4,5-b]indole] | 14 | 98 | 99 | 94 | 96 | 48
C/C(=C\n1c2c(c3cc(C)ccc31)CCN(C)CC2)c1cccnc1 [Compound No. 247, (E)-3,9-dimethyl-6-(2-(pyridin-3-yl)prop-1-enyl)-1,2,3,4,5,6-hexahydroazepino[4,5-b]indole] | 8 | 98 | 99 | 74 | 82 | 36
C/C(=C\n1c2c(c3cc(Cl)ccc31)CCN(C)CC2)c1ccncc1 [Compound No. 248, (E)-9-chloro-3-methyl-6-(2-(pyridin-4-yl)prop-1-enyl)-1,2,3,4,5,6-hexahydroazepino[4,5-b]indole] | 81 | 99 | 101 | 103 | 88 | 44
C/C(=C/n1c2c(c3cc(Cl)ccc31)CCN(C)CC2)c1cccc(F)c1 [Compound No. 249, (Z)-9-chloro-6-(2-(3-fluorophenyl)prop-1-enyl)-3-methyl-1,2,3,4,5,6-hexahydroazepino[4,5-b]indole] | 35 | 100 | 98 | 101 | 98 | 97
C/C(=C\n1c2c(c3cc(Cl)ccc31)CCN(C)CC2)c1cccc(F)c1 [Compound No. 250, (E)-9-chloro-6-(2-(3-fluorophenyl)prop-1-enyl)-3-methyl-1,2,3,4,5,6-hexahydroazepino[4,5-b]indole] | 15 | 100 | 99 | 99 | 93 | 85
C/C(=C/n1c2c(c3cc(C)ccc31)CCN(C)CC2)c1cccc(F)c1 [Compound No. 251, (Z)-6-(2-(3-fluorophenyl)prop-1-enyl)-3,9-dimethyl-1,2,3,4,5,6-hexahydroazepino[4,5-b]indole] | 35 | 101 | 99 | 99 | 96 | 95
C/C(=C\n1c2c(c3cc(C)ccc31)CCN(C)CC2)c1cccc(F)c1 [Compound No. 252, (E)-6-(2-(3-fluorophenyl)prop-1-enyl)-3,9-dimethyl-1,2,3,4,5,6-hexahydroazepino[4,5-b]indole] | 19 | 96 | 87 | 98 | 93 | 87
C/C(=C\n1c2c(c3cc(C)ccc31)CCN(C)CC2)c1ccncc1 [Compound No. 253, (E)-3,9-dimethyl-6-(2-(pyridin-4-yl)prop-1-enyl)-1,2,3,4,5,6-hexahydroazepino[4,5-b]indole] | 55 | 102 | 101 | 103 | 32 | 31
COc1ccc(C#Cn2c3c(c4cc(Cl)ccc42)CCN(C)CC3)cc1F [Compound No. 283, 9-chloro-6-((3-fluoro-4-methoxyphenyl)ethynyl)-3-methyl-1,2,3,4,5,6-hexahydroazepino[4,5-b]indole] | 12 | 90 | 100 | 40 | 12 | 83
